One data set has as its system SH—SY5Y cells. The experiment in a line: Western blot of residual Aβ42 levels (clearance of Aβ42 by neuronal cells). Format: cell-based. Particulars: co-treatment with low-dose LPS, 72 h. The method, then: The cell mixture samples were analyzed via 12% SDS-PAGE gel electrophoresis and transferred to a PVDF membrane. […] After hybridization with the primary antibody, the membrane was washed thrice with PBST before the addition of an HRP-conjugated secondary antibody against the primary antibody. The membrane was then washed thrice with PBST before immunoreactive bands were detected by UVP ChemStudio touch ([…] JENA®). The primary antibodies used in this study included the following: anti-Aβ (6E10, BIOLEGEND® 803001), anti-actin ([…]®), and anti-GAPDH (GTX100118). Signal intensity was analyzed using VisionWorks 9.1 and statistically analyzed using GraphPad Prism 9.
(Immunoblotting shows a protein as a band on a membrane.)

Another data set deals with LPS-Aβ42 complex (Homo sapiens, UniProt P05067). The data set can be described thus: Real-time mass-sensitive measurement (QCM-D) of the non-equilibrium oscillation between LPS and Aβ42. Format: binding. The settings on record: for effect on the oscillatory event (lifetime) of the LPS-Aβ42 complex: bait in combination with LPS, Aβ42 100 μM, baits 20 μM; for time (apparent lifetime of the non-equilibrium interaction): mass dropping from 80% to 20%. The source says:
The lifetime of each sample was indicated in colored lines.
A real-time mass-sensitive measurement strategy involving quartz crystal microbalance with dissipation explorer (QCM-D) and single-channel module (Q-Sense, Biolin Scientific, Vastra Frölunda, Sweden) was used to evaluate the non-equilibrium interaction between Aβ42 and two baits (LPS and natural compounds). In addition, the steady-state circular dichroism and fluorescence spectra upon excitation of tryptophan at different temperatures were recorded to reveal the secondary structures of Aβ42 in the presence and absence of LPS. The fluorescent T jump system was utilized to confirm the adsorbing capability of LPS to Aβ42 by reading the corresponding protein dynamics. The detailed methods and materials are described as follows.
Preparation of the first bait: A solution of 0.1 mM MCL-NHS and LPS at a ratio of 1:1 was mixed in DI water. The mixture was cooled at 25° C. overnight (please refer to linker modification in the following), which spontaneously allowed the conjugation of the amine group of LPS and NHS-activated carboxylic acid of MCL. Owing to the structural complexity, it was difficult to validate the amide bond formation between MCL-NHS and LPS via NMR identification (FIG. 1). Nevertheless, the supramolecular host-guest recognition between LPS and colistin (a cyclic peptide) was used to identify the existence of MCL-modified LPS (first bait). The details of the mass-sensitive measurement are described in the next section.
Linker modification: The conjugation of the first bait (LPS) and linker (3-mercaptopanyl-n-hydroxysuccinimide ester) was mixed together for overnight reaction before anchoring on the gold sensor. The linker may be linked to one or two —NH2 groups in the core oligosaccharide part of LPS.
Real-time mass-sensitive measurement: Quartz crystal microbalance with dissipation explorer (QCM-D) and single-channel module (Q-Sense™, BIOLIN SCIENTIFIC®, Vastra Fralunda, Sweden) was used to evaluate the non-equilibrium interaction between Aβ42 and two baits (LPS and natural compounds). Prior to use, the new and reused gold sensors (a circle shape with a diameter of 1.0 cm, Q-Sense Sensors™, BIOLIN SCIENTIFIC®) were precleaned using a UV/ozone cleaner and piranha solution, which was a mixture of 30% H2O2 and concentrated H2SO4 at 1:3 (v/v). This piranha solution reacts violently with organic materials and should be handled with great care and protection. After washing of the gold sensors with LPS-free DI water, the first bait was initially inputted in a flow model at a flow rate of 0.15 mL/min under 25° C., which could be immediately anchored on a clean gold sensor. We conducted all measurements by switching between the continuous flowing model (CFM) and flowing-to-soaking model (FSM) after washing; the CFM maintained the same flow rate (0.15 mL/min), and the FSM allowed the flow velocity to slow down or completely stop. A sampling interval of 0.3 s was used to collect each frequency readout at seven overtones […], while the quartz crystal resonator of the QCN-D system settled at a fundamental resonant frequency (5 MHz). The Q-Sense system was utilized in addition to the following Sauerbrey equation to obtain the third overtone (n=3) and calculate the mass change after measurement.
where Δm is the change in the adsorbed mass of molecules; Δf is the time-responded frequency observed at the third overtone; and C is a constant that is equal to 17.7 ng/cm^2 at the resonance frequency of the quartz oscillator (5 MHz). The equation (Eq. S1) allows a direct quantitative study for mass comparison.
Operation of a real-time sensing platform: To perform the measurements, the LPS-free DI water and other solvents were allowed to continuously flow for about 1 h at 25° C. or until the baseline of two parameters (frequency and dissipation of QCM-D) reached an equilibrium state before sample operation and data collection. […]

The test system of a further data set is SH—SY5Y neuronal cells. The experiment in a line: Cell viability (CCK8) of Aβ42-treated neuronal cells. The settings on record: for rescue effect of Aβ42-induced cell apoptosis: co-treatment with low dose (10 nM) LPS, bait 1, 10, 50, 100 μM, versus LPS alone; for rescue of Aβ42-induced cell death by small baits alone: without co-treatment with LPS.
Data set [1] concerns the target T1, Aβ42 (Homo sapiens, UniProt P05067). The experiment in a line: Circular dichroism of Aβ42 and LPS-Aβ42. The settings on record: Aβ42 96 μM, LPS 160 nM, 25° C. The protocol:
Circular dichroism (CD): Approximately 300 μL of (96 μM) and mixtures of Aβ42 (96 μM) and LPS (160 nM) were loaded into a quartz cuvette of an optical length of 1 mm (110-1-40, HELLMA ANALYTICS®) and measured using a spectrometer equipped with a thermostat (Model 410, AVIV BIOMEDICAL®, Inc.) in 190-260 nm at 25° C. with a spectral resolution of 1 nm.

For data set [2], the target named is T1, Aβ42. The data set can be described thus: Fluorescent T jump protein dynamics of Aβ42 and LPS-Aβ42. The settings on record: two-state model analysis upon T jump. The source says:
A fluorescent T jump system was constructed on the basis of a previous report (Yang, C. T., Chu, L. K. Phys. Chem. Chem. Phys. 2022, 24, 11079-11085), with slight modification. The aqueous solutions were sandwiched by two quartz windows (diameter=25 mm, thickness=2 mm, #14-962, EDMUND OPTICS®) separated by a drilled Teflon spacer of a thickness of 0.8 mm. The diameter of the hole in the center was 2.0 mm. The circular infrared beam, which was used to heat up water to increase the temperature, from a continuous-wave diode laser at 1550 nm was focused with two convex lenses (f=100.0 mm; f=75.6 mm) to a diameter of 1.6 mm before entering the sample cell. […] The fluorescence was collected using a MicroSpot Focusing Objective (LMU-20X-NUV, THORLABS®, 325-500 nm) and later focused through a 200 μm pinhole by a lens (f=50.0 mm) to an optical fiber (300-1,200 nm). Thereafter, the collected fluorescence light was introduced to a photomultiplier tube and filtered using an optical filter to define the detection range at 300-445 nm. The voltage signal from the photomultiplier was amplified by a factor of 20 using a voltage pre-amplifier, and further recorded using an oscilloscope.
The photobleaching-induced fluorescence decrease should be considered in the evolution of the fluorescence intensity change of Aβ42 and LPS-A342 upon T jump. […]

Entries after “also recorded” stand apart in the source; their conditions may differ. Structures can show the parent of a compound that is named as a salt.

Sequence of LPS-Aβ42 complex (P05067 672-713 limits assumed, one chain of several): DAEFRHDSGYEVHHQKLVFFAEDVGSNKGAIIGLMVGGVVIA
T1 sequence (P05067 672-713 limits assumed): as the sequence (P05067 672-713 limits assumed, one chain of several) above
Experimental for SH—SY5Y neuronal cells: Cell viability: Neuronal cells were maintained in MEM (GIBCO® 51200-038) supplemented with 10% FBS, 1×MEM NEAA (GIBCO® 11140-050), 1×L-glutamine (GIBCO® 25030-081), and 1×sodium pyruvate (GIBCO® 1136-070). Neuronal SH—SY5Y cells were plated at a density of 8,000 cells per well in 96-well plates and allowed to attach overnight at 37° C. in 5% CO2 humidified air. Aβ42 (100 μM), LPS (10 nM), CS (100 μM), EG (100 PM), and morin (100 μM) were then added to each medium containing 2.5% dimethyl sulfoxide and sterilized using UV light. Thereafter, the solution containing Aβ42 and LPS was mixed with CS, EG, or morin at different concentrations ranging from 1 to 100 μM and added into the plate of the SH—SY5Y cells. The medium was then replaced, and the remaining mixture was incubated for 72 h at 37° C. in 5% CO2 humidified air. Cell viability was measured using the CCK8 (SIGMA-ALDRICH® 96992) assay according to the manufacturer's protocol. Before the Aβ42 treatment of Neuronal SH—SY5Y cells, a 30 k filter was used to remove unbound LPS from the LPS-insulted Aβ42 mixture.

For chondroitin sulfate sodium [CS], in the data set on SH—SY5Y cells, the “residual Aβ42 levels from the total lysate” value (“residual Aβ42 levels” for short) is “not observed; also recorded: no impact on the degradation of Aβ42”. Moreover, on LPS-Aβ42 complex, the “effect on the oscillatory event (lifetime) of the LPS-Aβ42 complex” value (“effect on the oscillatory event” for short) is recorded as “shortened the binding event; also recorded: shortening”. In the data set on SH—SY5Y neuronal cells (Aβ42 100 μM), the “rescue effect of Aβ42-induced cell apoptosis” value is reported as “not observed” and the “rescue of Aβ42-induced cell death by small baits alone” value (from here on “rescue of Aβ42-induced cell death”) was “could not alleviate Aβ42-induced cell death”.

Regarding `O=C(/C=C/c1ccc(O)c(O)c1)O[C@H](Cc1ccc(O)c(O)c1)C(=O)O` [rosmarinic acid], the “effect on the oscillatory event” value at LPS-Aβ42 complex was “did not perturb the oscillatory event”.

In the case of `O=c1c(O)c(-c2cc(O)c(O)c(O)c2)oc2cc(O)cc(O)c12` [myricetin], the “effect on the oscillatory event” value at LPS-Aβ42 complex is “did not perturb the oscillatory event”.

Take `O=C(O[C@@H]1Cc2c(O)cc(O)cc2O[C@@H]1c1cc(O)c(O)c(O)c1)c1cc(O)c(O)c(O)c1` [EG, epigallocatechin gallate]: the “residual Aβ42 levels” value in the data set on SH—SY5Y cells was “not observed; also recorded: no impact on the degradation of Aβ42”. The “effect on the oscillatory event” value on LPS-Aβ42 complex is “did not perturb the oscillatory event”. Besides, the “rescue of Aβ42-induced cell death” value in the data set with SH—SY5Y neuronal cells (Aβ42 100 μM) is listed as “could not alleviate Aβ42-induced cell death”.

Consider `O=c1c(O)c(-c2ccc(O)cc2O)oc2cc(O)cc(O)c12` [morin], for which the “residual Aβ42 levels” value with SH—SY5Y cells is recorded as “significantly decreased; also recorded: dose-dependent depletion of Aβ42”. Besides, on LPS-Aβ42 complex ([morin] 20 nM), the ln(γ) worked out at 2.75, the “Δt = tw/morin − tw/o morin” value was found to be 63 s, the “γ (lifetime increment percentage)” value was found to be 15.7% and the “time (apparent lifetime of the non-equilibrium interaction)” value was found to be 465 s. In addition, at LPS-Aβ42 complex ([morin] 50 nM), the ln(γ) was found to be 3.47, the “Δt = tw/morin − tw/o morin” value came to 129 s, the “γ (lifetime increment percentage)” value is 32.1% and the “time (apparent lifetime of the non-equilibrium interaction)” value is 531 s. In addition, on LPS-Aβ42 complex ([morin] 100 nM), the ln(γ) is 4.22, the “Δt = tw/morin − tw/o morin” value was found to be 275 s, the “γ (lifetime increment percentage)” value was found to be 68.4% and the “time (apparent lifetime of the non-equilibrium interaction)” value is recorded as 677 s. Moreover, on LPS-Aβ42 complex ([morin] 200 nM), the ln(γ) worked out at 4.42, the “Δt = tw/morin − tw/o morin” value was determined as 335 s, the “γ (lifetime increment percentage)” value worked out at 83.3% and the “time (apparent lifetime of the non-equilibrium interaction)” value was found to be 737 s. The “effect on the oscillatory event” value on LPS-Aβ42 complex was “extended; also recorded: significant prolongation; also recorded: significant time extension; also recorded: prolonged in a dose-dependent manner”. Moreover, at LPS-Aβ42 complex (linear regression of Table S1 data), the “n, power to which bait concentration is taken (slope of ln(γ) versus ln([morin]))” value is 0.76±0.10. Moreover, in the data set with SH—SY5Y neuronal cells (Aβ42 100 μM), the “rescue effect of Aβ42-induced cell apoptosis” value is given as “in a dose-dependent manner; also recorded: could be observed” and the “rescue of Aβ42-induced cell death” value is reported as “could not alleviate Aβ42-induced cell death”.

Take `CCN(CC)CCCC(C)Nc1c2ccc(Cl)cc2nc2ccc(OC)cc12` (centres unmarked) [quinacrine dihydrochloride]: the “effect on the oscillatory event” value at LPS-Aβ42 complex is reported as “did not perturb the oscillatory event”.

Take `COc1cc(/C=C/C(=O)CC(=O)/C=C/c2ccc(O)c(OC)c2)ccc1O` [curcumin]: on LPS-Aβ42 complex, the “effect on the oscillatory event” value is recorded as “did not perturb the oscillatory event”.

Regarding Lipopolysaccharide [LPS], the “lifetime of mass oscillation” value on LPS-Aβ42 complex (LPS anchored on sensor, Aβ42, FSM, no bait) is listed as “less than 30 min”. In addition, in the data set on SH—SY5Y neuronal cells (LPS of Aβ42 solution removed), the cell viability entry is reported as “less than 10%”. Further, the “viability of neuronal cells in medium containing Aβ42” value in the data set on SH—SY5Y neuronal cells (high dose (1000 nM) of LPS, Aβ42 100 μM) came out at 100%. The “effect on secondary structure of Aβ42 (CD spectra)” value on Aβ42 [1] is recorded as “does not initiate the unfolding of the secondary structure of Aβ42”. Besides, the “effect on thermally induced protein dynamics of Aβ42” value at Aβ42 [2] is reported as “retarded the upward response”.

With `O=C(OC[C@H]1O[C@@H](OC(=O)c2cc(O)c(O)c(OC(=O)c3cc(O)c(O)c(O)c3)c2)[C@H](OC(=O)c2cc(O)c(O)c(OC(=O)c3cc(O)c(O)c(O)c3)c2)[C@@H](OC(=O)c2cc(O)c(O)c(OC(=O)c3cc(O)c(O)c(O)c3)c2)[C@@H]1OC(=O)c1cc(O)c(O)c(OC(=O)c2cc(O)c(O)c(O)c2)c1)c1cc(O)c(O)c(OC(=O)c2cc(O)c(O)c(O)c2)c1` [tannic acid], the “effect on the oscillatory event” value on LPS-Aβ42 complex is reported as “did not perturb the oscillatory event”.

The values are drawn from patent US20240241137A1, “METHOD FOR SELECTING A DRUG CANDIDATE FOR TREATING OR PREVENTING OR DELAYING THE ONSET OR PROGRESSION OF AN AMYLOIDOGENIC DISEASE” (NATIONAL HEALTH RESEARCH INSTITUTES, priority 2022, published 2024).
